The values that follow come from article PMC10730852 (Communications Biology, 2023).

The Kd is the free concentration of one partner at which half of the binding sites on the other are occupied at equilibrium, for simple one-to-one binding.

Test [1] has as its system E. coli/pET-22b (Control). Kind of test: Disk diffusion assay. Type of test: cell-based, E. coli BL21 Rosetta (DE3). The settings on record: Escherichia coli, 37 °C, 24 hr, read-out: inhibition zones. How it is done:
The E. coli BL21 Rosetta (DE3) strains containing pET22b, and its carrying cph, cph001, cph002, cph003, aph(3′)-Ia, and mphB plasmids were cultured overnight. The cells, respectively, were then diluted to 0.1 OD600 in molten LB agar with 100 μg/mL ampicillin and 500 μM IPTG for the disk diffusion assay. The cells with ampicillin and IPTG were mixed well with molten LB agar and then poured into 10 cm diameter Petri dishes. […] The Petri dishes were placed in the incubator at 37 °C and the inhibition zones were observed after 24 hr.

Test [2] concerns the target T1, Cph001 (Streptosporangium roseum, UniProt D2B3F1).
T1 sequence (D2B3F1 1-286): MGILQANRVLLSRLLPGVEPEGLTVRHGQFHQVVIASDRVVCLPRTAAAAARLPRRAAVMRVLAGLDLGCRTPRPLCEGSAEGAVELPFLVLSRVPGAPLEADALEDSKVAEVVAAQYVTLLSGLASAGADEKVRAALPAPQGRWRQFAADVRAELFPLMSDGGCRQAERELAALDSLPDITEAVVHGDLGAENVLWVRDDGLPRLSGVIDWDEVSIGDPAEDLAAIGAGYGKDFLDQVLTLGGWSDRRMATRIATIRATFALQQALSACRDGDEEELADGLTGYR
Kind of test: Isothermal titration calorimetry (ITC) analysis of Cph001. Type of test: binding.
Description: The integrated heat areas constitute a differential binding curve that was fitted with a standard single-site binding model by Origin 7.

The subject of test [3] is Cph001. The test can be described thus: Coupled enzyme assay and Michaelis-Menten kinetics of Cph001. It counts as biochemical, Streptosporangium roseum. The settings on record: 2 mM antibiotic substrate, ATP as phosphate donor; absorbance at 340 nm. As for the experimental part:
The phosphorylation reaction was measured by a coupled enzyme assay as following. […] The reactions were mixed well in a final volume of 200 μL in 96-well plates. The Cph001 activity was assayed by determining the oxidation of NADH at 340 nm. The reaction buffer and enzyme concentration of the Cph reaction was followed by previous study. The 340 nm absorbance changes were detected at 30 °C for every 1 min at a time in 15 min on an EPOCH Microplate Reader (BioTek). All reactions were carried out in triplicate.
The initial velocity data were plotted against substrate concentrations and fit the Michaelis-Menten equation. The Km and Vmax values were calculated based on the Michaelis-Menten equation. GraphPad Prism was used for statistical data analysis. All reactions were carried out in triplicate.

The subject of test [4] is E. coli/cph001. The test can be described thus: Disk diffusion assay. It counts as cell-based, E. coli BL21 Rosetta (DE3). How it is done:
(§1) The E. coli BL21 Rosetta (DE3) strains containing pET22b, and its carrying cph, cph001, cph002, cph003, aph(3′)-Ia, and mphB plasmids were cultured overnight. The cells, respectively, were then diluted to 0.1 OD600 in molten LB agar with 100 μg/mL ampicillin and 500 μM IPTG for the disk diffusion assay. The cells with ampicillin and IPTG were mixed well with molten LB agar and then poured into 10 cm diameter Petri dishes. The 7 mm disks were placed onto the LB agar and gently loaded with varying quantities of CMN IIA, CMN IIB, VIO, Kan, and Ery, ranging from 0 to 200 μg. The Petri dishes were placed in the incubator at 37 °C and the inhibition zones were observed after 24 hr.
For orientation: In agar diffusion tests the substance spreads into inoculated agar from a disc or well.

The test system of test [5] is E. coli/cph. Kind of test: Disk diffusion assay. Type of test: cell-based, E. coli BL21 Rosetta (DE3). The settings on record: Escherichia coli, 24 h, read-out: inhibition zones. How it is done:
as §1

Test [6] concerns the target Cph. The arrangement: method as in ACS Chem. Biol. 17, 138, 2022. The settings on record: ITC; ref ACS Chem. Biol. 17, 138, 2022; read-out: KD values for Cph interaction; cited from earlier work.
Where [7] appears, read: Escherichia coli, 24 h, read-out: inhibition zones.

As to `C[C@@H]1NC(=O)[C@@H](N)CNC(=O)[C@H](C2CCNC(=N)N2)NC(=O)/C(=C/NC(N)=O)NC(=O)[C@H](CNC(=O)C[C@@H](N)CCCN)NC1=O` (stereo partly drawn) [CMN IIB], the zone of inhibition at 12.5 µg/disc is 17 mm in test [1] (12.5 μg on disk) and 11 mm in test [4] (setting [7]). Besides, the zone of inhibition at 50 µg/disc amounted to 23 mm in test [1] (50 μg on disk), 14 mm in test [4] (setting [7]) and 12 mm in test [5]. In addition, the zone of inhibition at 100 µg/disc turned out to be 25 mm in test [1] (100 μg on disk), 16 mm in test [4] (setting [7]) and 14 mm in test [5]. The zone of inhibition at 200 µg/disc in test [1] (200 μg on disk) is 27 mm; in test [4] (setting [7]), 17.5 mm; in test [5], 16 mm. Also, the results for the Kd in test [2] and in test [6] were 55.2 ± 4.4 µM and 5.48 µM, respectively. Moreover, the “phosphorylation by Cph001 in couple enzyme assay” value in test [3] is reported as “incapable of phosphorylating”. In test [4] (E. coli harboring cph001), the “resistance in disk diffusion assay” value is “capable of endowing E. coli with resistance”.
